From US20260191845A1, “PYRIDINE-2-THIOL 1-OXIDE DERIVATIVES AND THEIR USE FOR TREATMENT OF MAMMALIAN INFECTIONS CAUSED BY MYCOBACTERIUM OR FUNGI” (priority 2022, published 2026)
In brackets after ≈: the same amount, converted by molar mass. Like-named read-outs stand apart in the source and are kept apart here.

Key:
[1] = system: Mycobacterium abscessus ATCC 19977; assay: REMA MIC90 against M. abscessus ATCC 19977; type: cell-based; details: Mycobacteroides abscessus
Experimental: Briefly, serial 2-fold dilutions of drug are prepared in 96-well microtiter plates (Fluoronunc, Thermo Fisher, Waltham, MA, USA) in 100 μL of Middlebrook 7H9 medium (Difco), supplemented with 10% OADC without addition of Tween 80. Then, M. abscessus log-phase cultures were diluted (OD600=0.02) and added in the 96-well microtiter plate. Growth controls containing no compound and sterile controls without inoculum are also included. […] After 1 day of incubation at 37° C., 10 μL of resazurin (0.025% w/v) is added to each well, and bacterial viability is assessed after a further 24 h of incubation using a Fluoroskan™ Microplate Fluorometer (Thermo Fisher Scientific, Waltham, MA, USA; excitation=544 nm, emission=590 nm). […] Results are expressed as the average of at least three independent replicates and presented on the following Table 1.

[2] = system: Sporobolomyces salmonicolor; assay: Antifungal agar well diffusion assay; details: 20 μL water solution in 4 mm well
Experimental: (§1) The well diffusion test was performed using Casitone agar. The inoculum used was prepared using the Candida or Aspergillus strains from a 24-hour culture on Sabouraud dextrose agar, a suspension was made in a sterile saline solution (0.85%). The turbidity of the suspension was adjusted with a spectrophotometer at 530 nm to obtain a final concentration to match that of a 0.5 McFarland standard (0.5-2.5×10^3). 20 mL of Bacto-casitone were melted, cooled to 55° C. and then inoculated with 1 mL of the organism suspension. The inoculated agar was poured into the assay plate (9 cm in diameter) and allowed to cool down on a leveled surface.

[3] = system: Candida albicans H8; assay: Antifungal agar well diffusion assay; details: 20 μL water solution in 4 mm well
Experimental: as §1

[4] = system: Penicillium notatum; assay: Antifungal agar well diffusion assay; details: 20 μL water solution in 4 mm well
Experimental: as §1

[5] = system: Aspergillus niger; assay: Antifungal agar well diffusion assay; details: 20 μL water solution in 4 mm well
Experimental: as §1

[6] = ATCC19977, MIC90, REMA, Table 1, read-out: MIC in M. abscessus ATCC 19977
[7] = ATCC19977, read-out: MIC in M. abscessus ATCC 19977

Row | Structure (SMILES) | MIC [1, 6] | Inhibition Zone of Test Microorganism [2] | Inhibition Zone of Test Microorganism [3] | Inhibition Zone of Test Microorganism [4] | Inhibition Zone of Test Microorganism [5] | MIC [1, 7]
1 | COC(=O)c1ccc(S)[n+]([O-])c1 [Compound 3, Methyl 6-mercaptonicotinate 1-oxide] | 250 µg/mL (≈ 1350 µM) |  |  |  |  | 
2 | C[C@@H]1[C@H](O)[C@@H](C)/C=C/C=C/C=C/C=C/C=C/C=C/C=C/[C@H](O[C@@H]2O[C@H](C)[C@@H](O)[C@H](N)[C@@H]2O)C[C@@H]2O[C@](O)(C[C@@H](O)C[C@@H](O)[C@H](O)CC[C@@H](O)C[C@@H](O)CC(=O)O[C@H]1C)C[C@H](O)[C@H]2C(=O)O [Amph. B, reference compound] |  | 15 mm | 22 mm | 12 mm | 17 mm | 
3 | CN(C)C(=O)c1ccc(S)[n+]([O-])c1 [Compound 8, 6-Mercapto-N,N-dimethylnicotinamide 1-oxide] | 500 µg/mL (≈ 2520 µM) |  |  |  |  | 
4 | NC(=O)c1ccc([S-])[n+]([O-])c1.[K+] [Compound 6, Potassium 5-(aminocarbonyl)pyridine-2-thiolate 1-oxide] |  |  |  |  |  | 500 µg/mL
5 | CC(C)OC(=O)c1ccc([S-])[n+]([O-])c1.[Na+] [Compound 10, Sodium 5-(isopropoxycarbonyl)pyridine-2-thiolate 1-oxide] | 500 µg/mL |  |  |  |  | 
6 | CN(C)C(=O)c1ccc([S-])[n+]([O-])c1.[Na+] [Compound 9, Sodium 5-[(dimethylamino)carbonyl]pyridine-2-thiolate 1-oxide] | 500 µg/mL |  |  |  |  | 
7 | O=C(c1ccc([S-])[n+]([O-])c1)N1CCCCC1.[K+] [Compound 7, Potassium 5-(piperidin-1-ylcarbonyl)pyridine-2-thiolate 1-oxide] |  | 43 mm | 52 mm | 15 mm | 23 mm | 1000 µg/mL
8 | CCOC(=O)c1ccc(S)[n+]([O-])c1 [Compound 1, Ethyl 6-mercaptonicotinate 1-oxide] | 125 µg/mL (≈ 627 µM) | 43 mm | 56 mm | 17 mm | 26 mm | 
9 | COC(=O)c1ccc([S-])[n+]([O-])c1.[Na+] [Compound 4, Sodium 5-(methoxycarbonyl)pyridine-2-thiolate 1-oxide] | 250 µg/mL |  |  |  |  | 
10 | [Na+].[O-][n+]1cc(C(F)(F)F)ccc1[S-] [Compound 5, Sodium 5-(trifluoromethyl)pyridine-2-thiolate 1-oxide] |  | 40 mm | 49 mm | 15 mm | 22 mm | 250 µg/mL
